Reference: the NIST ThermoML archive (doi:10.1021/acs.jced.8b00298)
Numbers after ± are expanded uncertainties.

Details: Liquid
[1] = Visual observation in an unstirred cell

| Critical molar volume (Visual) | Critical pressure (Visual) | Critical temperature [1] | Critical pressure (Capillary flow) | Critical temperature (Capillary flow) | Compound |
| --- | --- | --- | --- | --- | --- |
| 0.00044 ± 2e-05 m3/mol | 3080 ± 30 kPa | 596.3 ± 0.3 K |  |  | C[C@@H]1CCCC[C@H]1C (relative stereo) [trans-1,2-dimethylcyclohexane] |
| 0.0005 ± 2e-05 m3/mol | 2770 ± 30 kPa | 646.9 ± 0.2 K |  |  | CC(C)(C)C1CCCCC1 [1,1-dimethylethylcyclohexane] |
| 0.00031 ± 2e-05 m3/mol | 3830 ± 40 kPa | 535.32 ± 0.24 K |  |  | COCCOC [1,2-dimethoxyethane] |
|  |  |  | 4000 ± 240 kPa | 800.3 ± 4 K | OCC1CCC(CO)CC1 (configuration not stated) [1,4-bis(hydroxymethyl)cyclohexane] |
|  |  |  | 4210 ± 90 kPa | 584 ± 2 K | COCC(C)=O [1-methoxy-2-propanone] |
|  |  |  | 2600 ± 80 kPa | 611.7 ± 2.4 K | CCC(=O)OC(C)COC (configuration not stated) [1-methoxypropan-2-yl propionate] |
|  |  |  | 3630 kPa | 549.8 ± 2 K | C=C(C)OC(C)=O [1-methylvinyl ethanoate] |
|  |  |  | 2730 ± 120 kPa | 550.7 ± 4 K | C=C(C)CC(C)(C)C [2,4,4-trimethyl-1-pentene] |
|  |  |  | 1980 ± 120 kPa | 726.6 ± 4 K | COCCOCCOCCOCCOC [2,5,8,11,14-pentaoxapentadecane] |
|  |  |  | 2310 ± 60 kPa | 681.2 ± 2.4 K | COCCOCCOCCOC [2,5,8,11-tetraoxadodecane] |
|  |  |  | 2830 ± 120 kPa | 619.7 ± 4 K | COCCOCCOC [2,5,8-trioxanonane] |
|  |  |  | 657 ± 67 kPa | 805 ± 20 K | CC(C)CCCC(C)CCCC(C)CCCCC(C)CCCC(C)CCCC(C)C (configuration not stated) [2,6,10,15,19,23-hexamethyltetracosane] |
|  |  |  | 4200 ± 110 kPa | 598.9 ± 4 K | CCOCCO [2-ethoxyethan-1-ol] |
|  |  |  | 4310 ± 140 kPa | 596.6 ± 3 K | COC(C)CO (configuration not stated) [2-methoxy-1-propanol] |
|  |  |  | 4300 ± 260 kPa | 511.6 ± 5.6 K | COC(C)OC [3-methyl-2,4-dioxapentane] |
| 0.00048 ± 2e-05 m3/mol | 2940 ± 30 kPa | 635.3 ± 0.2 K |  |  | CC(C)C1CCCCC1 [(1-methylethyl)cyclohexane] |
| 0.00048 ± 2e-05 m3/mol | 3030 ± 30 kPa | 653 ± 0.2 K |  |  | CCC(C)c1ccccc1 (configuration not stated) [(1-methylpropyl)benzene] |

| Critical molar volume (Visual) | Critical pressure (Visual) | Critical temperature [1] | Critical pressure (Capillary flow) | Critical temperature (Capillary flow) | Compound |
| --- | --- | --- | --- | --- | --- |
|  |  |  | 2520 ± 120 kPa | 615.8 ± 4 K | C=C(C)C(=O)OCCCC [butyl 2-methyl-2-propenoate] |
| 0.00056 ± 2e-05 m3/mol | 2510 ± 30 kPa | 649.3 ± 0.2 K |  |  | CCCCC1CCCCC1 [butylcyclohexane] |
| 0.00041 ± 2e-05 m3/mol | 3350 ± 30 kPa | 607.29 ± 0.24 K |  |  | C[C@@H]1CCCC[C@@H]1C [cis-1,2-dimethylcyclohexane] |
| 0.00043 ± 2e-05 m3/mol | 3040 ± 30 kPa | 586.1 ± 0.2 K |  |  | C[C@@H]1CCC[C@H](C)C1 [cis-1,3-dimethylcyclohexane] |
|  |  |  | 3080 ± 120 kPa | 578.2 ± 3 K | CCOC(=O)OCC [diethyl carbonate] |
|  |  |  | 1763 ± 110 kPa | 663 ± 3 K | CCCCCCOCCCCCC [dihexyl ether] |
|  |  |  | 4550 ± 280 kPa | 488.9 ± 3.2 K | COCOC [dimethoxymethane] |
|  |  |  | 2760 ± 400 kPa | 779 ± 20 K | COC(=O)c1ccc(C(=O)OC)cc1 [dimethyl 1,4-benzenedicarboxylate] |
|  |  |  | 4450 ± 130 kPa | 556.3 ± 3 K | COC(=O)OC [dimethyl carbonate] |
|  |  |  | 4720 ± 140 kPa | 650.6 ± 3 K | CN(C)C=O [dimethylformamide] |
|  |  |  | 1446 ± 85 kPa | 727 ± 4 K | CCCCCCCCOCCCCCCCC [dioctyl ether] |
|  |  |  | 3170 ± 120 kPa | 572 ± 3 K | C=C(C)C(=O)OCC [ethyl 2-methylpropenoate] |
| 0.00043 ± 2e-05 m3/mol | 3110 ± 30 kPa | 605.9 ± 0.2 K |  |  | CCC1CCCCC1 [ethylcyclohexane] |
|  |  |  | 3080 ± 100 kPa | 654.9 ± 3 K | CC(=O)OCCOC(C)=O [ethylene diacetate] |
|  |  |  | 3830 ± 140 kPa | 652.8 ± 4 K | COC(=O)CC(C)=O [methyl 3-oxobutanoate] |
|  |  |  | 3750 ± 100 kPa | 557.9 ± 1.6 K | C=C(C)C(=O)OC [methyl methacrylate] |
| 0.00042 ± 2e-05 m3/mol | 3060 ± 30 kPa | 585.84 ± 0.24 K |  |  | C[C@H]1CC[C@H](C)CC1 [trans-1,4-dimethylcyclohexane] |

Continued, compound first:

| Compound | Critical molar volume (Visual) | Critical pressure (Visual) | Critical temperature [1] | Critical pressure (Capillary flow) | Critical temperature (Capillary flow) |
| --- | --- | --- | --- | --- | --- |
| CC(C)C(O)C(C)(C)CO (configuration not stated) [2,2,4-trimethyl-1,3-pentanediol] |  |  |  | 3110 ± 140 kPa | 708.2 ± 3.2 K |
| C=CC(=O)OCC(CC)CCCC (configuration not stated) [2-ethylhexyl 2-propenoate] |  |  |  | 2080 ± 140 kPa | 672.5 ± 6 K |
| CC(C)C=O [2-methylpropanal] |  |  |  | 4210 ± 140 kPa | 519 ± 3 K |
| CC(C)C#N [2-methylpropanenitrile] |  |  |  | 3672 ± 150 kPa | 560.8 ± 2 K |
| Cc1cccs1 [2-methylthiophene] |  |  |  | 4620 ± 140 kPa | 602 ± 2 K |
| OCCOc1ccccc1 [2-phenoxyethanol] |  |  |  | 3860 ± 120 kPa | 749.4 ± 2 K |
| O=C1CCCN1 [2-pyrrolidinone] |  |  |  | 5590 ± 220 kPa | 789.1 ± 3.6 K |
| COCCC#N [3-methoxypropanenitrile] |  |  |  | 4040 ± 120 kPa | 650.9 ± 2.4 K |
| Cc1ccsc1 [3-methylthiophene] |  |  |  | 4620 ± 140 kPa | 607.3 ± 3 K |
| Cc1ccc(C=O)cc1 [4-methylbenzaldehyde] |  |  |  | 3920 ± 90 kPa | 715.8 ± 4 K |
| CC(C)(C)c1ccccc1 [(1,1-dimethylethyl)benzene] | 0.00048 ± 2e-05 m3/mol | 2900 ± 30 kPa | 646.9 ± 0.2 K |  |  |
| CCN(CC)CCO [(diethylamino)ethanol] |  |  |  | 3247 ± 130 kPa | 625.9 ± 4 K |
| CC(=O)N(C)C [N,N-dimethylethanamide] |  |  |  | 4260 ± 120 kPa | 660.2 ± 2.6 K |
| OCCN1CCNCC1 [N-(2-hydroxyethyl)piperazine] |  |  |  | 3980 ± 480 kPa | 760 ± 12 K |
| CNC(C)=O [N-methylacetamide] |  |  |  | 5090 ± 200 kPa | 707.4 ± 2 K |
| CNC=O [N-methylformamide] |  |  |  | 6080 ± 260 kPa | 715.6 ± 4 K |
| CN1CCCCC1 [N-methylpiperidine] |  |  |  | 3660 ± 160 kPa | 581.5 ± 3.6 K |
| Cn1cccc1 [N-methylpyrrole] |  |  |  | 4210 ± 140 kPa | 587.4 ± 3 K |
| CN1CCCC1 [N-methylpyrrolidine] | 0.0003 ± 2e-05 m3/mol | 4000 ± 40 kPa | 548.62 ± 0.24 K |  |  |
| Sc1ccccc1 [benzenethiol] |  |  |  | 4650 ± 180 kPa | 689.2 ± 4 K |
| CCCCc1ccccc1 [butylbenzene] | 0.0005 ± 2e-05 m3/mol | 2890 ± 30 kPa | 660.3 ± 0.2 K |  |  |
| S=C=S [carbon disulfide] | 0.000176 ± 9e-06 m3/mol | 7330 ± 60 kPa | 552.5 ± 0.2 K |  |  |
| SC1CCCCC1 [cyclohexanethiol] |  |  |  | 3970 ± 160 kPa | 669.6 ± 4 K |
| c1ccc(Cc2ccccc2)cc1 [diphenylmethane] |  |  |  | 2920 ± 60 kPa | 770 ± 2 K |
| C=CC(=O)OCC [ethyl propenoate] |  |  |  | 3710 ± 100 kPa | 555.2 ± 2 K |
| O=C1OCCO1 [ethylene carbonate] |  |  |  | 5280 ± 800 kPa | 786 ± 10 K |
| C=CC(=O)OC [methyl propenoate] |  |  |  | 3990 ± 140 kPa | 532.7 ± 2.6 K |
| C1CCNCC1 [piperidine] |  |  |  | 4560 ± 140 kPa | 594.4 ± 3 K |
| c1cc[nH]c1 [pyrrole] |  |  |  | 6300 ± 170 kPa | 633.3 ± 3 K |
| C1CCSC1 [tetrahydrothiophene] |  |  |  | 5430 ± 300 kPa | 634.6 ± 6 K |
